From publication PMC9207888, “Hydride Transfer Mechanism of Enzymatic Sugar Nucleotide C2 Epimerization Probed with a Loose-Fit CDP-Glucose Substrate” (ACS Catalysis, 2022)

Legend:
Format in all cases: binding
[1] = biological target: T1, TaCPa2E (Thermodesulfatator atlanticus CDP-paratose 2-epimerase; C2 epimerase) (Thermodesulfatator atlanticus, UniProt Z9RN36Q305); assay: HPLC quantification of coenzyme released from denatured purified enzyme; conditions: resting enzyme without substrate, 60 °C, pH 7.5
T1 construct: C-terminal His-tag, pET21a, expressed in E. coli BL21(DE3); 39362 g/mol functional monomer; catalytic Tyr164; SDR superfamily
T1 sequence (Z9RN36Q305 1-340): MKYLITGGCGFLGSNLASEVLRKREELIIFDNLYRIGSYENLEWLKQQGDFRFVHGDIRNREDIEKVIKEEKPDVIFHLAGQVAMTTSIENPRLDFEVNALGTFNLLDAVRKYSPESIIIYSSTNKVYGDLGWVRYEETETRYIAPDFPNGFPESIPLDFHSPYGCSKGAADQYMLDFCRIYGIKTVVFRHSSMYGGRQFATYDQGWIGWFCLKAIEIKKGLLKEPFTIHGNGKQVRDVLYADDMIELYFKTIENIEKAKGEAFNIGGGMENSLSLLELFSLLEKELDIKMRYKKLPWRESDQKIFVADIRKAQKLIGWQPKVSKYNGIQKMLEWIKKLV
Description: HPLC quantification of coenzyme released from denatured purified enzyme on TaCPa2E (Thermodesulfatator atlanticus CDP-paratose 2-epimerase; C2 epimerase) | the NADH content of the resting enzyme in the absence of the substrate

[2] = biological target: T1, TaCPa2E (Thermodesulfatator atlanticus CDP-paratose 2-epimerase; C2 epimerase); assay: HPLC of coenzyme released from denatured purified enzyme; conditions: tightly bound, co-purified; extraction not quantitative
[3] = biological target: T2, TaCPa2E (Thermodesulfatator atlanticus CDP-paratose 2-epimerase; C2 epimerase) (Thermodesulfatator atlanticus, UniProt Z9RN36Q305, Y164F); assay: co-purified coenzyme in isolated variant; conditions: tightly bound
T2 construct: C-terminal His-tag, pET21a, expressed in E. coli BL21(DE3); 39362 g/mol functional monomer; catalytic Tyr164; SDR superfamily

SMILES | portion of enzyme-NADH in resting enzyme [1] | HPLC of coenzyme released from denatured purified enzyme [2] | co-purified coenzyme in isolated variant [3]
NC(=O)C1=CN([C@@H]2O[C@H](COP(=O)(O)OP(=O)(O)OC[C@H]3O[C@@H](n4cnc5c(N)ncnc54)[C@H](O)[C@@H]3O)[C@@H](O)[C@H]2O)C=CC1 [NADH] | 4.15 ± 1.0% |  | 
NC(=O)c1ccc[n+]([C@@H]2O[C@H](COP(=O)(O)OP(=O)(O)OC[C@H]3O[C@@H](n4cnc5c(N)ncnc54)[C@H](O)[C@@H]3O)[C@@H](O)[C@H]2O)c1 [NAD^+] |  | enzyme-bound NAD^+ could not be extracted from TaCPa2E reliably | The purified variant contained tightly bound NAD^+
